# Test results taken from article PMC9610207 (Viruses, 2022).
# Legend:
# SARS-CoV-2 [1] = assay type: cell-based
# SARS-CoV-2 [2] = assay type: cell-based; remark: listed apart in the source
# SARS-CoV-2 [3] = conditions: cited from earlier work
# SARS-CoV-2 [4] = conditions: cited from earlier work; remark: listed apart in the source
smiles,measurement,setting,value
"CCN(CC)CCCC(C)Nc1ccnc2cc(Cl)ccc12 (stereo not shown) [chloroquine, Chloroquine]",viral infection in Calu-3 with chloroquine,SARS-CoV-2 [1],resistant
same,viral infection in VeroE6 with chloroquine,SARS-CoV-2 [2],strongly inhibited
same,"SARS-CoV-2 infection in VeroE6, previous studies",SARS-CoV-2 [3],inhibited
same,"SARS-CoV-2 infection in Calu-3, previous studies",SARS-CoV-2 [4],not
